Values of other authors as cited in patent publication US20040197397A1, “Drug delivery system for treatment of urinary incontinence” (Watson Pharmaceuticals, Inc., priority 2002, published 2004).

Conditions: free base

In the case of CCN(CC)CC#CCOC(=O)C(O)(c1ccccc1)C1CCCCC1 (stereo not shown) [Oxybutynin free base, Oxybutynin], the pKa is given as 10.3.
